Tests used:
Assay type in all cases: cell-based
[1] = tested on: new-born hamster fibroblasts; experiment: TGF-β production by fibroblasts, TGF-β1 Emax ImmunoAssay System (Experiment 4); settings: 24 hours, no additions = 100, relative value ± SD
Method: To study the mechanism of the enhancement of collagen production by royal jellies and/or L-ascorbic acids, the influence of royal jelly and/or L-ascorbic acid 2-glucoside, which had been reported to enhance the production of mRNA for collagen in fibroblasts, on the production of TGF-β was examined by the following method: • (1) Assay for TGF-β: • TGF-β was assayed on TGF-β1 Emax ImmunoAssay System, commercialized by Promega Corporation, Tokyo, Japan. • (2) Assay for TGF-β produced by fibroblasts in the presence of royal jelly and/or L-ascorbic acid 2-glucoside: • TGF-β was assayed by inoculating 1×10^4 cells/well of new-born hamster fibroblasts, prepared by the method similarly as in Experiment 1, to 96-well microplates, commercialized by Nippon Becton. […]

[2] = tested on: new-born hamster fibroblasts; experiment: Collagen production by L-ascorbic acid 2-glucoside or sodium L-ascorbate with or without royal jelly, seven-day culture (Experiment 3); settings: for Collagen production level: no additions = 100, relative value ± SD
Method: Royal jelly was dissolved in D-MEM medium containing 10% (v/v) FCS to give a concentration of 200 μg/ml, and then L-ascorbic acid 2-glucoside was dissolved in the resulting medium to give a concentration of 0.2, 0.5 or 1.0 μg/ml in terms of the weight of L-ascorbic acid. As controls, L-ascorbic acid 2-glucoside was dissolved in D-MEM medium, supplemented with 10% (v/v) FCS but with no royal jelly, to give a concentration of 0.2, 0.5, or 1.0 μg/ml in terms of the weight of L-ascorbic acid. Similarly as in Experiment 1, new-born hamster fibroblasts were cultured for seven days in 6-well plates and further cultured for seven days after the supernatant in each plate was replaced with 5 ml of any of the above media, which dissolved the above-identified L-ascorbic acid 2-glucoside and royal jelly, or those prepared for use as controls. Thereafter, the collagen production level in each well was determined by the same method as in Experiment 1. As a negative control, a medium, supplemented with 200 μg/ml of royal jelly and 1 μg/ml of sodium L-ascorbate in terms of the weight of L-ascorbic acid, was added to the fibroblasts similarly as above, and the cells were cultured for seven days.
The fibroblasts with no addition of L-ascorbic acid 2-glucoside gave a lower collagen production level similarly as that of the control in Experiment 1, independently of the addition of royal jellies. When ascorbic acid 2-glucoside was added to give a concentration of 0.2 μg/ml or more, the collagen production level was enhanced as compared with the system with no L-ascorbic acid 2-glucoside, and the level was more enhanced by the addition of royal jellies.

[3] = tested on: new-born hamster fibroblasts; experiment: Collagen production by new-born hamster fibroblasts, [2,3-3H] proline taken into collagen (Experiment 1); settings: for Relative amount of collagen production: no addition = 100, relative value ± SD
Method: According to conventional manner, the dorsum skin of a new-born hamster was cut and detached, and fibroblasts were isolated from the detached skin. The preparation method is outlined below: To detach the epidermis from the dermis, the debris was placed and allowed to stand at 4° C. overnight in Eagle's minimum essential medium, commercialized by Nippon Suisan Kaisha, Ltd., Tokyo, Japan, containing 0.03 mM Ca^2+, in which 500 units/ml of a dispase commercialized by Godo Shusei Co., Ltd., Tokyo, Japan, was dissolved. The detached dermis was kept at 37° C. for one hour in Dulbecco minimum essential medium (abbreviated as “D-MEM”, hereinafter), commercialized by Nippon Suisan Kaisha, Ltd., Tokyo, Japan, in which 0.25% (v/v) of a collagenase commercialized by Amano Enzyme, Aichi, Japan, was dissolved. Thereafter, the resulting cell debris of the dermis were pipetted into a cell suspension with singly dispersed cells of new-born hamster fibroblasts, followed by collecting the cells by centrifugation. The cells were suspended in phosphate-buffered saline and allowed to stand for 30 min, followed by centrifugally collecting the resulting supernatant with fibroblasts and re-suspending the cells in D-MEM supplemented with 10% (v/v) of a fetal bovine serum (abbreviated as “FCS”, hereinafter) commercialized by GIBCO Bethesda Research Laboratories, Bethesda, Md., USA, into a cell suspension for use in the following assay for collagen production level.
The following cells were cultured in an incubator with 5% (v/v) CO2 at 37° C. Three milliliter aliquots of the cell suspension of new-born hamster fibroblasts, prepared in the above 3, were seeded in 6-well plates to give a cell density of 4×10^5 cells/well and cultured for seven days. To D-MEM supplemented with 10% (v/v) FCS was added and dissolved therein L-ascorbic acid to give a concentration of 0.0, 0.1, 0.2, 0.5, 1.0, 2.0, 5.0, 10.0, 20.0, 50.0, 100.0, or 200.0 μg/ml. Similarly as above, either a heated royal jelly or an unheated royal jelly was added to and dissolved in D-MEM supplemented with 10% (v/v) FCS to give a concentration of 0.0, 0.1, 0.2, 0.5, 1.0, 2.0, 5.0, 10.0, 20.0, 50.0, 100.0, 200.0, or 500.0 μg/ml. Five milliliter aliquot of any one of the above media supplemented with L-ascorbic acid or the heated or unheated royal jelly was added to each well of the plates, which had been removed off the culture supenatants of fibroblast cultures, followed by culturing the cells for three days. Thereafter, the supernatant in each well was replaced with five milliliters of a fresh medium supplemented with the same concentration of L-ascorbic acid or the heated or unheated royal jelly as mentioned-above, and the cells were sequentially cultured for three days, replaced with one milliliter of a fresh medium having the same concentration of L-ascorbic acid or the heated or unheated royal jelly as mentioned-above, cultured for three hours, admixed with [2,3-^3H] proline (40 Ci/mmol) commercialized by Amersham Corp., Div. Amersham International, Ill., USA, which had been dissolved in D-MEM to give a concentration of 3 μCi/well, and further cultured overnight. All the culture media, including those supplemented with L-ascorbic acid or the heated or unheated royal jelly, used in this experiment, were filtered with a 0.22 μm filter before use.
In the above 4, after the fibroblasts of new-born hamster were cultured in the presence of [2,3-^3H] proline, collagen was extracted from the cells in a usual manner and quantified for [2,3-^3H] proline taken thereinto. The quantitation was carried out by the method disclosed by Seong-Jin Kim et al. in Dermatologic Surgery, Vol. 24, pp. 1,054-1,058 (1998). […]

[4] = tested on: new-born hamster fibroblasts; experiment: Influence of royal jelly on the collagen production by L-ascorbic acid, significant difference test (Experiment 2)
Method: Using the assay system for the collagen production level used in Experiment 1, it was studied the influence of royal jellies on the collagen production by L-ascorbic acids: New-born hamster fibroblasts, prepared similarly as the method in Experiment 1, were seeded in 6-well plates and cultured for seven days. […] In this experiment, three wells were used for each concentration. The results were evaluated whether there existed a significant difference between the count in a control system and those in the test systems with different concentrations of heated or unheated royal jelly, based on the count for the control system with no royal jelly that was detected by a liquid scintillation counter, as a control.

[5] = tested on: new-born hamster fibroblasts; experiment: Collagen production by L-ascorbic acid 2-glucoside or sodium L-ascorbate with or without royal jelly, seven-day culture (Experiment 3); settings: 1 μg/ml L-ascorbic acid, three days, medium replaced with fresh one, three further days; data omitted
[6] = L-ascorbic acid 2-glucoside 0.2 μg/ml (as L-ascorbic acid) with royal jelly 200 μg/ml
[7] = L-ascorbic acid 2-glucoside 0.2 μg/ml (as L-ascorbic acid), no royal jelly

O=C1O[C@H]([C@@H](O)CO)C(O)=C1O[C@H]1O[C@H](CO)[C@@H](O)[C@H](O)[C@H]1O [L-ascorbic acid 2-glucoside]
Production level of TGF-β [1, 6]: 132 ± 12
Production level of TGF-β [1, 7]: 111 ± 5
Collagen production level [2, 6]: 298 ± 30
Collagen production level [2, 7]: 219 ± 31
Collagen production level ([2]; L-ascorbic acid 2-glucoside 0.5 μg/ml (as L-ascorbic acid) with royal jelly 200 μg/ml): 1440 ± 70
Collagen production level ([2]; L-ascorbic acid 2-glucoside 0.5 μg/ml (as L-ascorbic acid), no royal jelly): 527 ± 17
Collagen production level ([2]; L-ascorbic acid 2-glucoside 1.0 μg/ml (as L-ascorbic acid) with royal jelly 200 μg/ml): 3168 ± 318
Collagen production level ([2]; L-ascorbic acid 2-glucoside 1.0 μg/ml (as L-ascorbic acid), no royal jelly): 2250 ± 436
Concentration of L-ascorbic acid 2-glucoside at which the collagen production level was enhanced ([2]; compared with the system with no L-ascorbic acid 2-glucoside): ≥ 0.2 µg/mL
Stability dissolved in media ([2]; culture medium, seven days, compared with L-ascorbic acid): advantageously more stable as compared with L-ascorbic acid

O=C1O[C@H]([C@@H](O)CO)C([O-])=C1O.[Na+] [L-ascorbic acid, Sodium L-ascorbate]
Relative amount of collagen production ([3]; L-ascorbic acid 0.1 μg/ml): 95 ± 13
Relative amount of collagen production ([3]; L-ascorbic acid 0.2 μg/ml): 118 ± 26
Relative amount of collagen production ([3]; L-ascorbic acid 0.5 μg/ml): 210 ± 33
Relative amount of collagen production ([3]; L-ascorbic acid 1.0 μg/ml): 482 ± 89
Relative amount of collagen production ([3]; L-ascorbic acid 2.0 μg/ml): 1497 ± 155
Relative amount of collagen production ([3]; L-ascorbic acid 5.0 μg/ml): 1755 ± 151
Relative amount of collagen production ([3]; L-ascorbic acid 10.0 μg/ml): 2089 ± 160
Relative amount of collagen production ([3]; L-ascorbic acid 20.0 μg/ml): 2456 ± 186
Relative amount of collagen production ([3]; L-ascorbic acid 50.0 μg/ml): 2841 ± 341
Relative amount of collagen production ([3]; L-ascorbic acid 100.0 μg/ml): 2956 ± 500
Relative amount of collagen production ([3]; L-ascorbic acid 200.0 μg/ml): 2863 ± 456
Minimum effective amount of L-ascorbic acid for producing collagen ([3]; sole use): 0.5 µg/mL
Concentration at which the level of collagen production reached a plateau level ([3]; sole use, no significant increase above): ≥ 50 µg/mL
Lowest concentration of L-ascorbic acid exerting the collagen-production action in combination with royal jelly [4]: 0.2 µg/mL

Sodium L-ascorbate [L-ascorbic acid]
Collagen production with medium replacement [5]: enhanced level of collagen production
Enhancement of collagen production, negative control ([2]; 1 μg/ml sodium L-ascorbate (as L-ascorbic acid) with 200 μg/ml royal jelly, seven days, medium not replaced): no enhancement of collagen production

Source: patent US20050048128A1, “Process for producing collagen production enhancers and use thereof” (priority 2001, published 2005)
